Results: PubChem BioAssay (NCI)
Where “and” joins values, the source holds several entries; their conditions need not be identical. Identical values can stand only once.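 How tested: cells in 96-well plates exposed to compound for 48 hours at five concentrations. GI50 = concentration required for 50% inhibition of growth. TGI marks complete inhibition of growth.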

Key:
Experiment in all cases: NCI anticancer screen, dose series, 48 h
OVCAR-5 ovarian = tested on: OVCAR-5 ovarian
OVCAR-8 ovarian = tested on: OVCAR-8 ovarian
SK-MEL-28 melanoma = tested on: SK-MEL-28 melanoma
COLO 205 colon = tested on: COLO 205 colon
SK-MEL-5 melanoma = tested on: SK-MEL-5 melanoma
OVCAR-3 ovarian = tested on: OVCAR-3 ovarian
OVCAR-4 ovarian = tested on: OVCAR-4 ovarian
SNB-19 CNS = tested on: SNB-19 CNS
ACHN renal = tested on: ACHN renal
K-562 leukemia = tested on: K-562 leukemia

| SMILES | GI50 (OVCAR-5 ovarian) | TGI (OVCAR-5 ovarian) | GI50 (OVCAR-8 ovarian) | TGI (OVCAR-8 ovarian) | GI50 (SK-MEL-28 melanoma) | TGI (SK-MEL-28 melanoma) | GI50 (COLO 205 colon) | TGI (COLO 205 colon) | GI50 (SK-MEL-5 melanoma) | TGI (SK-MEL-5 melanoma) | GI50 (OVCAR-3 ovarian) | TGI (OVCAR-3 ovarian) | GI50 (OVCAR-4 ovarian) | TGI (OVCAR-4 ovarian) | GI50 (SNB-19 CNS) | TGI (SNB-19 CNS) | GI50 (ACHN renal) | TGI (ACHN renal) | GI50 (K-562 leukemia) | TGI (K-562 leukemia) |
| --- | --- | --- | --- | --- | --- | --- | --- | --- | --- | --- | --- | --- | --- | --- | --- | --- | --- | --- | --- | --- |
| Cc1nn(-c2nc3ccccc3s2)c(C)c1Oc1ccccc1O | 12.5 µM | 25.7 µM | 8.04 µM | 25.8 µM | 10.2 µM | 21.8 µM | 15.7 µM | 31.1 µM | 1.3 µM | 15.3 µM | 9.98 µM | 21.5 µM | 10.3 µM | 29.5 µM | 6.77 µM | 20.3 µM | 10.1 µM | 22.8 µM | 1.94 µM | 19.4 µM |
| CCC[CH2][Sn]1([CH2]CCC)[O]C(=O)c2cc(I)cc(I)c2[O]1 | 1.99 µM | 3.48 µM | 1.41 µM | 3.01 µM |  |  | 0.702 µM | 1.97 µM | 1.54 µM | 2.88 µM | 1.42 µM | 2.77 µM | 1.41 µM | 2.83 µM | 1.27 µM | 2.55 µM | 1.35 µM | 2.63 µM | 0.284 µM | 1.25 µM |
| O=S(=O)(/C=C/c1ccc(Cl)cc1Cl)Cc1ccccc1CS(=O)(=O)/C=C/c1ccc(Cl)cc1Cl |  | > 100 µM |  | > 100 µM |  | > 100 µM |  | > 100 µM |  |  |  | > 100 µM |  | > 100 µM |  | > 100 µM |  | > 100 µM |  | > 100 µM |
| CCOC12OC3=C(CC1CC1=C(CCC1=O)O2)C(=O)CC3 (stereo not given) |  | > 100 µM |  | > 100 µM |  |  |  | > 100 µM |  | > 100 µM |  | > 100 µM |  | > 100 µM |  | > 100 µM |  |  |  | > 100 µM |
| Cc1cc2c(cc1Cl)SC1=CC(=O)N(c3ccccc3)C1=NS2(=O)=O | > 100 µM | > 100 µM | 57.1 µM | > 100 µM | 16.9 µM | 40.9 µM | 26.4 µM | 67 µM |  | 10.8 µM | > 100 µM | > 100 µM | 65.3 µM | > 100 µM | 54.5 µM | > 100 µM | 26.6 µM | > 100 µM |  |  |
| Oc1ccccc1-c1nn(CNc2cccc(Cl)c2)c(=S)o1 | > 100 µM | > 100 µM | > 100 µM | > 100 µM |  |  | 53.8 µM | > 100 µM | 89.2 µM | > 100 µM | 30.4 µM | > 100 µM |  |  | > 100 µM | > 100 µM |  |  | 38.4 µM | > 100 µM |
| C=CCCC(OCOCCOC)c1cc(C)c(O[Si](C)(C)C(C)(C)C)c(C)c1 (stereo not given) |  | 32.4 µM |  | 39.8 µM |  | 64.7 µM |  | 32.9 µM |  | 24.3 µM |  | 27.7 µM |  |  |  | 20.7 µM |  | 26.7 µM |  | 26.2 µM |
| Cc1nc(Cl)nc(Cl)c1C |  | > 100 µM |  | > 100 µM |  | > 100 µM |  |  |  | > 100 µM |  | > 100 µM |  | > 100 µM |  | > 100 µM |  | > 100 µM |  | > 100 µM |
| COc1ccc(C[C@@H]2Cc3cc(OC)c(OC)cc3CN2C)cc1 |  | > 100 µM |  | > 100 µM |  | > 100 µM |  |  |  | > 100 µM |  | > 100 µM |  | > 100 µM |  | > 100 µM |  | > 100 µM |  | > 100 µM |
| CCOC(C)C(/C=N/NC(N)=S)=NNC(N)=S (stereo not given) |  | > 100 µM |  | > 100 µM |  | > 100 µM |  | > 100 µM |  | > 100 µM |  |  |  | > 100 µM |  | > 100 µM |  | > 100 µM |  | > 100 µM |
| O=S1c2ccccc2N=C(c2ccc3ccccc3c2)CC1C1=CC=CCC1 (stereo not given) |  | 40.6 µM |  | 49.4 µM |  | 33.1 µM |  | 37.9 µM |  | 30.4 µM |  | 31.8 µM |  |  |  |  |  | 42.6 µM |  | 27.4 µM |
| Cc1c(Cl)ccc2c1NC(=O)C2(O)C(C(=O)c1ccccc1)c1ccccc1 (stereo not given) |  | > 100 µM |  | > 100 µM |  | > 100 µM |  | > 100 µM |  | 60 µM |  |  |  | 28.7 µM |  | > 100 µM |  | > 100 µM |  | > 100 µM |
| CC1=C(C(=O)Nc2ccc(F)c(Cl)c2)C(c2ccccc2Cl)NC(=S)N1 (stereo not given) | > 50 µM | > 50 µM | 42.7 µM | > 50 µM | > 50 µM | > 50 µM | 23.9 µM | > 50 µM | 12.4 µM | > 50 µM | 39.5 µM | > 50 µM |  |  | 40 µM | > 50 µM | 17.5 µM | > 50 µM | 21.7 µM | > 50 µM |
| CCCCCCCCCCCCCC(=O)O[C@H]1CC[C@H](NC(=O)[C@H](OC)[C@H](O)[C@@H](O)[C@H](O)/C=C/C(C)C)C(=O)NC1 |  | 51.2 µM and > 100 µM | 0.00181 µM | 20.5 µM and 14.3 µM |  | 10.8 µM and 21.6 µM |  | 0.00374 µM and 0.0154 µM |  | 1.37 µM and 0.25 µM | 0.00435 µM | 10.5 µM and 17.9 µM | 0.00276 µM | 29 µM and 31.3 µM |  | 51.2 µM and 25.9 µM |  |  |  | 11.8 µM and 15.4 µM |
| COc1ccc(-c2[nH]c3ccccc3c2C=C(C#N)C#N)cc1 | 2.35 µM | > 100 µM | 1.1 µM | > 100 µM | 1.14 µM | > 39.3 µM | 0.223 µM | 0.533 µM |  |  | 0.263 µM | 0.713 µM | 0.797 µM | > 100 µM | 1.3 µM | 36.5 µM | 2.26 µM | > 100 µM |  |  |
| COc1cc2nc(-c3cnc(N(C)C)nc3)nc(NC3CCN(Cc4ccccc4)CC3)c2cc1OC | 1.78 µM | 3.46 µM | 1.68 µM | 3.97 µM | 1.83 µM | 3.58 µM | 0.637 µM | 2.09 µM | 1.58 µM | 2.95 µM | 1.69 µM | 3.27 µM |  |  | 1.2 µM | 3.1 µM | 0.927 µM | 2.17 µM | 0.369 µM | 1.95 µM |
| CS(=O)(=O)NNS(=O)(=O)c1cccc([N+](=O)[O-])c1 |  |  |  | > 100 µM |  |  |  | > 100 µM |  | > 100 µM |  |  |  | > 100 µM |  | > 100 µM |  | > 100 µM |  | > 100 µM |
